From patent publication US20250345329A1, “HETEROARYL DERIVATIVE COMPOUND AND USES THEREOF” (VORONOI, INC., priority 2022, published 2025)

These molecules were tested on Ba/F3 expressing EGFR Del19/T790M/C797S mutations (assay: Inhibitory activity on proliferation of Ba/F3 cell overexpressing EGFR C797S (Cell Titer-Glo)). Conditions: Mus musculus, BaF3; 72 hours treatment, cell growth rate vs control; read-out: Ba/F3 (EGFR DTC) GI50.
Assay type: cell-based
Description: <Experimental Example 2> Evaluation of Inhibitory Activity on Proliferation of Ba/F3 Cell Overexpressing EGFR C797S
The following experiments were performed to evaluate the inhibitory activity of the compounds according to the present invention on the proliferation of Ba/F3 expressing EGFR Del19/T790M/C797S mutations.
Ba/F3 cells were cultured in RPMI-1640 medium supplemented with 10% fetal bovine serum (FBS), and 3000 cells were seeded into each well of a white clear bottom 96 well plate (Corning) 24 hours prior to compound treatment. The compounds were diluted in dimethyl sulfoxide (3-fold dilution, total of 12 concentrations) and injected at 1 μl each so that the final concentration was […] to 5 μM. After 72 hours post treatment with compounds, living cells were reacted in a 37° C., CO2 incubator for […], followed by 10 minutes at room temperature using Cell Titer-Glo luminescent cell-viability reagent (Promega), and the luminescence intensity thereof was measured using a reader (SynergyNeo2, Biotek). The result values were calculated as a cell growth rate (%) compared to the control group. GI50 values were calculated using the GraphPad Prism version 8.4.3 (GraphPad software Inc., San Diego) program.

| SMILES | GI50 |
| --- | --- |
| CC(=O)c1cc(-c2nccc(Nc3cc(NC(C)C)c(C(=O)N4C[C@H](CS(C)(=O)=O)[C@H]4C)cn3)n2)ccc1O [Example 134, 1-(2-hydroxy-5-(4-((4-(isopropylamino)-5-((2R,3S)-2-methyl-3-((methylsulfonyl)meth-yl)azetidine-1-carbonyl)pyridin-2-yl)amino)pyrimidin-2-yl)phenyl)ethan-1-one] | 500 to 5000 nM |
| CC(C)Nc1cc(Nc2ccnc(-c3cnn(C(=O)C4CC4)c3)n2)ncc1C(=O)NCC#N [Example 87, N-(cyanomethyl)-6-((2-(1-(cyclo-propanecarbonyl)-1H-pyrazol-4-yl)pyrimidin-4-yl)amino)-4-(isopropylamino)nico-tinamide] | 500 to 5000 nM |
| CO[C@H]1CCN(c2nccc(Nc3cc(NC(C)C)c(C(=O)NCC4CCCC4)cn3)n2)C[C@H]1F [Example 91, N-(cyclopentylmethyl)-6-((2-(cis-3-fluoro-4-methoxypiperidin-1-yl)pyrimidin-4-yl)amino)-4-(isopropylamino)nico-tinamide] | 500 to 5000 nM |
| CO[C@H]1CCN(c2nccc(Nc3cc(NC(C)C)c(C(=O)N(C)CCN(C)C)cn3)n2)C[C@H]1F (relative stereo) [Example 29, N-(2-(dimethylamino)ethyl)-6-((2-(cis-3-fluoro-4-methoxypiperidin-1-yl)pyrimidin-4-yl)amino)-4-(isopropylamino)-N-methylnicotinamide] | 500 to 5000 nM |
| CC(C)Nc1cc(Nc2ccnc(-c3ccc(O)c(C=O)c3)n2)ncc1C(=O)N1C[C@H](CS(C)(=O)=O)[C@H]1C [Example 133, 2-hydroxy-5-(4-((4-(isopropylamino)-5-((2R,3S)-2-methyl-3-((methyl-sulfonyl)meth-yl)azetidine-1-carbonyl)pyridin-2-yl)amino)pyrimidin-2-yl)benzaldehyde] | 500 to 5000 nM |
| CO[C@H]1CCN(c2cc(Nc3ncc(C(=O)NCCS(C)(=O)=O)c(NC(C)C)n3)ccn2)C[C@H]1F [Example 95, 2-((2-((3R,4S)-3-fluoro-4-methoxypiperidin-1-yl)pyridin-4-yl)amino)-4-(isopropylamino)-N-(2-(methylsulfonyl)ethyl) pyrimidin-5-carboxamide] | 500 to 5000 nM |
| COCCN(C)C(=O)c1cnc(Nc2ccnc(N3CC[C@H](OC)[C@H](F)C3)n2)cc1NC(C)C (relative stereo) [Example 30, 6-((2-(cis-3-fluoro-4-methoxypiperidin-1-yl)pyrimidin-4-yl)amino)-4-(isopropylamino)-N-(2-methoxyethyl)-N-methylnicotinamide] | 500 to 5000 nM |
| COCCN(C)C(=O)c1cnc(Nc2ccnc(-c3cnn(S(=O)(=O)C4CC4)c3)n2)cc1NC(C)C [Example 27, 6-((2-(1-(cyclopropylsulfonyl)-1H-pyrazol-4-yl)pyrimidin-4-yl)amino)-4-(isopropylamino)-N-(2-methoxyethyl)-N-methylnicotinamide] | 500 to 5000 nM |
| Cc1cc2cc(n1)-c1cnn(C)c1OCC[C@H](C)Nc1cc(ncc1C(=O)NCCC(F)(F)F)N2 [Example 124, (S)-1^1,2^6,6-trimethyl-N-(3,3,3-trifluoropropyl)-1^1H-9-oxa-3,5-diaza-2,4(2,4)-dipyridina-1(4,5)-pyrazolacyclo-nonaphane-4^5-carboxamide] | 500 to 5000 nM |
| CO[C@H]1CCN(c2nccc(Nc3cc(NC(C)C)c(C(=O)NCCS(C)(=O)=O)cn3)n2)C[C@H]1F [Example 94, 6-((2-((3R,4S)-3-fluoro-4-methoxypiperidin-1-yl)pyrimidin-4-yl)amino)-4-(isopropylamino)-N-(2-(methylsulfonyl)ethyl) nicotinamide] | 500 to 5000 nM |
| CO[C@H]1CCN(c2nccc(Nc3cc(NC(C)C)c(C(=O)Nc4cnn(S(=O)(=O)C5CC5)c4)cn3)n2)C[C@H]1F [Example 33, N-(1-(cyclopropylsulfonyl)-1H-pyrazol-4-yl)-6-((2-(cis-3-fluoro-4-methoxypiperidin-1-yl)pyrimidin-4-yl)amino)-4-(isopropylamino)nico-tinamide] | 500 to 5000 nM |
| CO[C@H]1CCN(c2nccc(Nc3cc(NC(C)C)c(C(=O)Nc4cc(N5CCN(C)CC5)cc(C(F)(F)F)c4)cn3)n2)C[C@H]1F [Example 24, 6-((2-(cis-3-fluoro-4-methoxypiperidin-1-yl)pyrimidin-4-yl)amino)-4-(isopropylamino)-N-(3-(4-methylpiperazin-1-yl)-5-(trifluoromethyl)phe-nyl)nicotinamide] | 500 to 5000 nM |
| CO[C@@H]1CCN(c2nccc(Nc3cc(NC(C)C)c(C(=O)N4CC(CS(=O)(=O)C(C)C)C4)cn3)n2)C[C@@H]1F [Example 131, (6-((2-(cis-3-fluoro-4-methoxypiperidin-1-yl)pyrimidin-4-yl)amino)-4-(isopropylamino)pyri-din-3-yl)(3-((isopropylsulfonyl)methyl)azetidin-1-yl)methanone] | 500 to 5000 nM |
| C[C@H]1CCOc2c(cnn2C)-c2nccc(n2)Nc2cc(c(C(=O)Nc3cccc(CS(C)(=O)=O)c3)cn2)N1 [Example 125, (S)-1^1,6-dimethyl-N-(3-((methyl-sulfonyl)meth-yl)phenyl)-1^1H-9-oxa-3,5-diaza-2(2,4)-pyrimidina-4(2,4)-pyridina-1(4,5)-pyrazolacyclo-nonaphane-4^5-carboxamide] | 500 to 5000 nM |
| CO[C@H]1CCN(c2cc(Nc3ncc(C(=O)NCCCC(F)(F)F)c(NC(C)C)n3)ccn2)C[C@H]1F [Example 93, 2-((2-((3R,4S)-3-fluoro-4-methoxypiperidin-1-yl)pyridin-4-yl)amino)-4-(isopropylamino)-N-(4,4,4-trifluorobutyl)pyrimi-dine-5-carboxamide] | 500 to 5000 nM |

Second part, the molecule after the results:

| GI50 | SMILES |
| --- | --- |
| 500 to 5000 nM | CC(C)Nc1nc(Nc2ccnc(-c3cnn(S(=O)(=O)C4CC4)c3)c2)ncc1C(=O)NCCCC(F)(F)F [Example 92, 2-((2-(1-(cyclopropylsulfonyl)-1H-pyrazol-4-yl)pyridin-4-yl)amino)-4-(isopropylamino)-N-(4,4,4-trifluorobutyl)pyrimi-din-5-carboxamide] |
| < 500 nM | C[C@H]1CCOc2c(cnn2C)-c2nccc(n2)Nc2cc(c(C(=O)NCC(F)(F)C(F)(F)F)cn2)N1 [Example 103, (S)-1^1,6-dimethyl-N-(2,2,3,3,3-pentafluoropropyl)-1^1H-9-oxa-3,5-diaza-2(2,4)-pyrimidina-4(2,4)-pyridina-1(4.,5)-pyrazolacyclo-nonaphane-4^5-carboxamide] |
| < 500 nM | CC(C)Nc1cc(Nc2ccnc(-c3cnn(S(=O)(=O)C4CC4)c3)n2)ncc1C(=O)N1CC(CS(=O)(=O)C(C)C)C1 [Example 130, (6-((2-(1-(cyclopropylsulfonyl)-1H-pyrazol-4-yl)pyrimidin-4-yl)amino)-4-(isopropylamino)pyri-din-3-yl)(3-((isopropylsulfonyl)methyl)azetidin-1-yl)methanone] |
| < 500 nM | C[C@H]1CCOc2c(cnn2C)-c2cc(ccn2)Nc2cc(c(C(=O)NCCC(F)(F)F)cn2)N1 [Example 123, (S)-1^1,6-dimethyl-N-(3,3,3-trifluoropropyl)-1^1H-9-oxa-3,5-diaza-2,4(2,4)-dipyridina-1(4,5)-pyrazolacyclo-nonaphane-4^5-carboxamide] |
| < 500 nM | CC(C)S(=O)(=O)CC1CN(C(=O)c2cnc3cc2N[C@@H](C)CCOc2c(cnn2C)-c2nccc(n2)N3)C1 [Example 121, (S)-(1^1,6-methyl-1^1H-9-oxa-3,5-diaza-2(2,4)-pyrimidina-4(2,4)-pyridina-1(4,5)-pyrazolacyclo-nonaphane-4^5-yl)(3-((isopropylsulfonyl)methyl)azetidin-1-yl)methanone] |
| < 500 nM | C[C@H]1CCOc2c(cnn2C)-c2nccc(n2)Nc2cc(c(C(=O)Nc3cc(N4CCN(C)CC4)cc(N(C)S(C)(=O)=O)c3)cn2)N1 [Example 114, (S)-1^1,6-dimethyl-N-(3-(N-methyl-methylsulfonami-do)-5-(4-methylpiperazin-1-yl)phenyl)-1^1H-9-oxa-3,5-diaza-2(2,4)-pyrimidina-4(2,4)-pyridina-1(4,5)-pyrazolacyclo-nonaphane-4^5-carboxamide] |
| < 500 nM | C[C@H]1CCOc2c(cnn2C)-c2nccc(n2)Nc2cc(c(C(=O)NCCCC(F)(F)F)cn2)N1 [Example 88, (S)-1^1,6-dimethyl-N-(4,4,4-trifluorobutyl)-1^1H-9-oxa-3,5-diaza-2(2,4)-pyrimidina-4(2,4)-pyridina-1(4,5)-pyrazolacyclo-nonaphane-4^5-carboxamide] |
| < 500 nM | C[C@H]1CCOc2c(cnn2C)-c2nccc(n2)Nc2cc(c(C(=O)NCCC(F)(F)F)cn2)N1 [Example 89, (S)-1^1,6-dimethyl-N-(3,3,3-trifluoropropyl)-1^1H-9-oxa-3,5-diaza-2(2,4)-pyrimidina-4(2,4)-pyridina-1(4,5)-pyrazolacyclo-nonaphane-4^5-carboxamide] |
| < 500 nM | CC(C)Nc1cc(Nc2ccnc(-c3cnn(S(=O)(=O)C4CC4)c3)n2)ncc1C(=O)NC[C@@H](F)C(C)(C)O [Example 132, (R)-6-((2-(1-(cyclopropylsulfonyl)-1H-pyrazol-4-yl)pyrimidin-4-yl)amino)-N-(2-fluoro-3-hydroxy-3-methylbutyl)-4-(isopropylamino)nico-tinamide] |
